From patent US4128638A, “Nona- and deca-peptide amide derivatives demonstrating high ovulation inducing activity” (ICI Australia Limited, priority 1975, dated 1978)
Where a SMILES comes first, the peptide text is derived from it. [ ]: non-standard residue; d: D form. pGlu = O=C1CC[C@@H](C(=O)O)N1

Key:
[1] = test system: LH release from the pituitary gland of ovariectomized ewes; test: Bioassay for LH release in ovariectomized ewes (plasma LH by radioimmunoassay); type: in vivo; settings: intravenous injection
Description: Each ewe was bled twice by jugular venipuncture before administration of the analogue, to establish basal levels of LH in plasma. Following intravenous injection of the appropriate analogue dissolved in saline solution (1 ml), blood samples were collected at intervals over the next three hours, centrifuged and subjected to radioimmunoassay for LH.

[2] = test system: androgen-sterilized, constant-oestrous rats; test: Ovulation induction in androgen-sterilized, constant-oestrous rats; type: in vivo; settings: intravenous dose/rat 0.25 μg
Source text: This activity is exemplified in the table below:

For `CC(C)C[C@H](NC(=O)CCNC(=O)[C@H](Cc1ccc(O)cc1)NC(=O)[C@H](CO)NC(=O)[C@H](Cc1c[nH]c2ccccc12)NC(=O)[C@H](Cc1c[nH]cn1)NC(=O)[C@@H]1CCC(=O)N1)C(=O)N[C@@H](CCCNC(=N)N)C(=O)N1CCC[C@H]1C(=O)NCC(N)=O` [Example 1, L-Pyroglutamyl-L-histidyl-L-tryptophanyl-L-seryl-L-tyrosyl-β-alanyl-L- leucyl-L-arginyl-L-prolyl-glycinamide], the “P* (maximal release of LH by the LHRH analogue at a given dose expressed as a percentage of the LH release by LHRH at the same dose)” value ([1]; dose 2.5 μg) was 97% and the “P* (maximal release of LH by the LHRH analogue at a given dose expressed as a percentage of the LH release by LHRH at the same dose)” value ([1]; dose 25 μg) was 108%.

`CNC(=O)[C@@H]1CCCN1C(=O)[C@H](CCCNC(=N)N)NC(=O)[C@H](CC(C)C)NC(=O)CCNC(=O)[C@H](Cc1ccc(O)cc1)NC(=O)[C@H](CO)NC(=O)[C@H](Cc1c[nH]c2ccccc12)NC(=O)[C@H](Cc1c[nH]cn1)NC(=O)[C@@H]1CCC(=O)N1` [β-Ala^6 -des-Gly^10 -LHRH methylamide, L-Pyroglutamyl-L-histidyl-L-tryptophanyl-L-seryl-L-tyrosyl-β-alanyl-L- leucyl-L-arginyl-L-proline N-methylamide] was tested, and the Ovulating rats/group [2] was 3/3.

With `CCNC(=O)[C@@H]1CCCN1C(=O)[C@H](CCCNC(=N)N)NC(=O)[C@H](CC(C)C)NC(=O)CCNC(=O)[C@H](Cc1ccc(O)cc1)NC(=O)[C@H](CO)NC(=O)[C@H](Cc1c[nH]c2ccccc12)NC(=O)[C@H](Cc1c[nH]cn1)NC(=O)[C@@H]1CCC(=O)N1` [β-Ala^6 des-Gly^10 -FHRH ethylamide, L-Pyroglutamyl-L-histidyl-L-tryptophanyl-L-seryl-L-tyrosyl-β-alanyl-L- leucyl-L-arginyl-L-proline N-ethylamide] the Ovulating rats/group [2] was 3/3.

For `CC(C)C[C@H](NC(=O)CNC(=O)[C@H](Cc1ccc(O)cc1)NC(=O)[C@H](CO)NC(=O)[C@H](Cc1c[nH]c2ccccc12)NC(=O)[C@H](Cc1c[nH]cn1)NC(=O)[C@@H]1CCC(=O)N1)C(=O)N[C@@H](CCCNC(=N)N)C(=O)N1CCC[C@H]1C(=O)N(C)CC(N)=O` [Example 3, L-Pyroglutamyl-L-histidyl-L-tryptophanyl-L-seryl-L-tyrosylglycyl-L-leucyl-L-arginyl-L-prolysarcosinamide], the “P* (maximal release of LH by the LHRH analogue at a given dose expressed as a percentage of the LH release by LHRH at the same dose)” value ([1]; dose 5 μg) was 70% and the “P* (maximal release of LH by the LHRH analogue at a given dose expressed as a percentage of the LH release by LHRH at the same dose)” value ([1]; dose 50 μg) was 45%.

`CC(C)C[C@H](NC(=O)CNC(=O)[C@H](Cc1ccc(O)cc1)NC(=O)[C@H](CO)NC(=O)[C@H](Cc1c[nH]c2ccccc12)NC(=O)[C@H](Cc1c[nH]cn1)NC(=O)[C@@H]1CCC(=O)N1)C(=O)N[C@@H](CCCNC(=N)N)C(=O)N1CCC[C@H]1C(=O)NCCC(N)=O` [Example 2, L-Pyroglutamyl-L-histidyl-L-tryptophanyl-L-seryl-L-tyrosylglycyl-L-leucyl-L-arginyl-L-prolyl-β-alaninamide] was tested, and the “P* (maximal release of LH by the LHRH analogue at a given dose expressed as a percentage of the LH release by LHRH at the same dose)” value ([1]; dose 5 μg) was 12% and the “P* (maximal release of LH by the LHRH analogue at a given dose expressed as a percentage of the LH release by LHRH at the same dose)” value ([1]; dose 50 μg) was 75%.

With `CC(C)[C@H](NC(=O)[C@@H](C)NC(=O)[C@H](Cc1ccc(O)cc1)NC(=O)[C@H](CO)NC(=O)[C@H](Cc1c[nH]c2ccccc12)NC(=O)[C@H](Cc1c[nH]cn1)NC(=O)[C@@H]1CCC(=O)N1)C(=O)N[C@@H](CCCNC(=N)N)C(=O)N1CCC[C@H]1C(=O)NCC(N)=O` [D-Ala^6 -Val^7 -LHRH, L-pyroglutamyl-L-histidyl-L-tryptophanyl-L-seryl-L-tyrosyl-D-alanyl-L-valyl-L-arginyl-L-prolylglycinamide] ([pGlu]HWSY[dA]VRPG-NH2) the Ovulating rats/group [2] was 3/3.

For `CC(C)C[C@H](NC(=O)CCNC(=O)[C@H](Cc1ccc(O)cc1)NC(=O)[C@H](CO)NC(=O)[C@H](Cc1c[nH]c2ccccc12)NC(=O)[C@H](Cc1c[nH]cn1)NC(=O)[C@@H]1CCC(=O)N1)C(=O)N[C@@H](CCCNC(=N)N)C(=O)N1CCC[C@H]1C(=O)N1CCCC1` [β-Ala^6 -des-Gly^10 -LHRH pyrrolidide, L-Pyroglutamyl-L-histidyl-L-tryptophanyl-L-seryl-L-tyrosyl-β-alanyl-L- leucyl-L-arginyl-L-proline pyrrolidide], the Ovulating rats/group [2] was 3/3.

With `CCCNC(=O)[C@@H]1CCCN1C(=O)[C@H](CCCNC(=N)N)NC(=O)[C@H](CC(C)C)NC(=O)CCNC(=O)[C@H](Cc1ccc(O)cc1)NC(=O)[C@H](CO)NC(=O)[C@H](Cc1c[nH]c2ccccc12)NC(=O)[C@H](Cc1c[nH]cn1)NC(=O)[C@@H]1CCC(=O)N1` [β-Ala^6 -des-Gly^10 -LHRH n-propylamide, L-pyroglutamyl-L-histidyl-L-tryptophanyl-L-seryl-L-tyrosyl-β-alanyl-L- leucyl-L-arginyl-L-proline N-n-propylamide] the Ovulating rats/group [2] was 5/6.

`CC[C@H](C)[C@H](NC(=O)[C@@H](C)NC(=O)[C@H](Cc1ccc(O)cc1)NC(=O)[C@H](CO)NC(=O)[C@H](Cc1c[nH]c2ccccc12)NC(=O)[C@H](Cc1c[nH]cn1)NC(=O)[C@@H]1CCC(=O)N1)C(=O)N[C@@H](CCCNC(=N)N)C(=O)N1CCC[C@H]1C(=O)NCC(N)=O` [D-Ala^6 -Ile^7 -LHRH, L-Pyroglutamyl-L-histidyl-L-tryptophanyl-L-seryl-L-tyrosyl-D-alanyl-L-isoleucyl-L-arginyl-L-prolyl-glycinamide] ([pGlu]HWSY[dA]IRPG-NH2) was tested, and the Ovulating rats/group [2] was 3/3.
